Source: US5981540A, “Heterocycle-condensed morphinoid derivatives” (SmithKline Beecham Farmaceutici S.P.A., priority 1994, dated 1999)
Counter-ions that a name gives are not always drawn.

Columns and labels:
kappa opioid receptor = molecular target: T1, kappa opioid receptor (Mus musculus, UniProt P33534); assay: Radioligand binding, kappa opioid receptor ([3H]-U69593, mouse brain membranes); conditions: selectivity ratio, kappa vs delta
T1 construct: Mouse brain membranes were prepared as described by; from tissue; host or cells: mouse brain membranes
T1 sequence (P33534 whole entry): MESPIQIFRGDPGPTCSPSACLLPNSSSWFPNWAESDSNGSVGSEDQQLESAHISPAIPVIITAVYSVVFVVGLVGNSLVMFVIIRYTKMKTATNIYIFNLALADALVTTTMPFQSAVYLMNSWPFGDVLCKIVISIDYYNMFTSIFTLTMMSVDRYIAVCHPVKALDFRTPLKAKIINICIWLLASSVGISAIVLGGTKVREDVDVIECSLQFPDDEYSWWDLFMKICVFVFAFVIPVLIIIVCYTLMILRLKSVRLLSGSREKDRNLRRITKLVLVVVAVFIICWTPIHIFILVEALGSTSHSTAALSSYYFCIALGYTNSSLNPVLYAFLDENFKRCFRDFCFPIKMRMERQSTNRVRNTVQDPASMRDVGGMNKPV
Procedure: (§1) Mouse brain membranes were prepared as described by Kosteriitz (Br. J. Pharmacol., 1981, 73, 939.). […] The binding of the mu ligand [^3 H]-DAMGO (Eur. J. Pharmacol., 1989, 166, 213) and of the kappa ligand [^3 H]-U69593 (Excerpta Medica, 1990, 211) were carried out at 0.5 nM. The non-specific binding was determined in presence of naloxone (10 μM) for all tritiated ligands. […] The IC50 obtained were used to calculate the inhibitory constants (Ki) accordingly to the Cheng and Prusoff relation (Biochem. Pharmacol., 1973, 22, 3099).

delta opioid receptor = molecular target: T2, delta opioid receptor (Mus musculus, UniProt P32300); assay: Radioligand binding, delta opioid receptor ([3H]-DADLE, mouse brain membranes); conditions: [3H]-DADLE binding, 1.3 nM, with 40 nM unlabelled DAMGO
T2 construct: Mouse brain membranes were prepared as described by; from tissue; host or cells: mouse brain membranes
T2 sequence (P32300 whole entry): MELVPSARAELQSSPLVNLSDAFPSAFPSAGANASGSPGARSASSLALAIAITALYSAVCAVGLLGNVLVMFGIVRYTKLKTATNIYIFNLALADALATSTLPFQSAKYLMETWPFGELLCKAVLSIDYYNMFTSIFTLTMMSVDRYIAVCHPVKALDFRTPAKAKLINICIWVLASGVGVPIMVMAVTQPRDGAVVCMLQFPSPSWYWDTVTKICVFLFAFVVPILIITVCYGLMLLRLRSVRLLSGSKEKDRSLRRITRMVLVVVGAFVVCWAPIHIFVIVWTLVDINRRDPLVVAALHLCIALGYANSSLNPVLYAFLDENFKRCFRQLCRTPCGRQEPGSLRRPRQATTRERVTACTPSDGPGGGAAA
Procedure: as §1

mu opioid receptor = molecular target: T3, mu opioid receptor (Mus musculus, UniProt P42866); assay: Radioligand binding, mu opioid receptor ([3H]-DAMGO, mouse brain membranes); conditions: selectivity ratio, mu vs delta
T3 construct: Mouse brain membranes were prepared as described by; from tissue; host or cells: mouse brain membranes
T3 sequence (P42866 whole entry): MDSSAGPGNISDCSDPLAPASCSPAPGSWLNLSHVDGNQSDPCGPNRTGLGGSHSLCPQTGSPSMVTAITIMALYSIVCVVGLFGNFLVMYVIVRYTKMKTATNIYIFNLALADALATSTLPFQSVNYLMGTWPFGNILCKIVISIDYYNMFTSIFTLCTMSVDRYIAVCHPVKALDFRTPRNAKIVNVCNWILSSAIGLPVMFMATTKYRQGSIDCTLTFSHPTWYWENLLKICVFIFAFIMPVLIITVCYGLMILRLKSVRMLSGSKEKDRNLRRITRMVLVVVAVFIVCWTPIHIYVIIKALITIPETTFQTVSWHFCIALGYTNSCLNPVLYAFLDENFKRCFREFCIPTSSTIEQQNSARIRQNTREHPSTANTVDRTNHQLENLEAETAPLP
Procedure: as §1

[1] = molecular target: delta opioid receptor (mouse vas deferens); assay: Mouse vas deferens (MVD) bioassay, delta agonist/antagonist activity
Procedure: The delta agonist/antagonist activity of the compounds of the present invention is determined in the mouse vas deferens (MVD) bioassay as described below.
Vasa deferentia were obtained from CD-1 mice and were suspended in a Mg^2+ -free Krebs buffer at 37° C. The tissues were electrically stimulated with pulse trains having the following parameters: train duration 50 ms, stimulus duration 2 ms, frequency of stimuli 50 Hz, maximal voltage 60-70 V, train frequency 0.1 Hz. Concentration response curves for each compounds were constructed cumulatively. Linear regression analysis and IC50 concentrations were evaluated according to Tallarida and Murray (Manual of Pharmacological Calculations, Springer Verlag N.Y., 1981).

CCN(CC)C(=O)c1[nH]c2c(c1C)C[C@H]1[C@H]3Cc4ccc(OC)c5c4[C@@]1(CCN3C)[C@H]2O5 [Example 7, [8R-(4bS*,8α,8aβ,12bβ)]-11-Diethylaminocarbonyl-7,10-dimethyl-1-methoxy-5,6,7,8,12,12b-hexahyro-(9H)-4,8-methanobenzofuro[3,2-e]pyrrolo[2,3-g]isoquinoline hydrochloride]
Ki kappa/Ki delta (kappa opioid receptor): 2259
Ki (delta opioid receptor): 1.59 nM
Ki mu/Ki delta (mu opioid receptor): 218
IC50 ([1]; electrically stimulated mouse vas deferens, 37° C.): 25 nM
shift of the dose-response curve by NTI (selective antagonism) ([1]; in presence of 30 nM of NTI (naltrindole), MVD): 10 fold
